Data from PubChem BioAssay AID328 (DTP/NCI, 2004).
Several values for one entry are separate records, joined by “and”; a condition that tells them apart may be missing. Identical values can stand only once. Inconclusive results and toxic doses are left out.

Test system: BDF1 mice, P388 leukemia ip, median survival T/C
Assay: NCI In Vivo Anticancer Drug Screen. Data for tumor model P388 Leukemia (intraperitoneal) in B6D2F1 (BDF1) mice
Details: endpoint: median survival time, higher = longer survival
Method: The antitumor activity of compounds was measured in mice bearing transplantable tumors. Survival or tumor size were measured and the results are expressed as the measurement made in the treated group (T) divided by the measurement made in the vehicle treated control group (C). The tumor model used in this assay is P388 Leukemia (intraperitoneal) in B6D2F1 (BDF1) mice

[1] = dose: 100.0 mg/kg/injection, schedule: Q01DX001 (ip), vehicle: Klucel (hydroxypropylcellulose) (HPC)
[2] = dose: 200.0 mg/kg/injection, schedule: Q01DX001 (ip), vehicle: Klucel (hydroxypropylcellulose) (HPC)
[3] = dose: 100.0 mg/kg/injection, schedule: Q04DX003 (ip), vehicle: saline with Tween-80
[4] = dose: 200.0 mg/kg/injection, schedule: Q04DX003 (ip), vehicle: saline with Tween-80
[5] = dose: 200.0 mg/kg/injection, schedule: Q04DX003 (ip), vehicle: saline

CCCCCCCCCOc1ccc(C=O)cc1OC
T/C (dose: 100.0 mg/kg/injection, schedule: Q01DX001 (ip), vehicle: saline sonified): 100 % of control
T/C (dose: 200.0 mg/kg/injection, schedule: Q01DX001 (ip), vehicle: saline sonified): 90 % of control
T/C (dose: 400.0 mg/kg/injection, schedule: Q01DX001 (ip), vehicle: saline sonified): 100 % of control

Cc1cc(Cl)ccc1NC(=O)N1c2ccccc2SC12CCCC2
T/C (dose: 50.0 mg/kg/injection, schedule: Q01DX009 (ip), vehicle: saline with Tween-80): 97 % of control
T/C (dose: 100.0 mg/kg/injection, schedule: Q01DX009 (ip), vehicle: saline with Tween-80): 91 % of control
T/C (dose: 200.0 mg/kg/injection, schedule: Q01DX009 (ip), vehicle: saline with Tween-80): 104 % of control

COC1CCC(C)(C=O)C(C#N)(C#N)C1(C#N)C#N (stereo unspecified)
T/C (dose: 12.5 mg/kg/injection, schedule: Q01DX001 (ip), vehicle: saline with Tween-80): 98 % of control
T/C (dose: 25.0 mg/kg/injection, schedule: Q01DX001 (ip), vehicle: saline with Tween-80): 114 % of control
T/C (dose: 50.0 mg/kg/injection, schedule: Q01DX001 (ip), vehicle: saline with Tween-80): 109 % of control

CN1OCC2CCCC(c3ccccc3)C21 (stereo unspecified)
T/C (dose: 50.0 mg/kg/injection, schedule: Q04DX003 (ip), vehicle: Klucel (hydroxypropylcellulose) (HPC)): 100 % of control
T/C (dose: 100.0 mg/kg/injection, schedule: Q04DX003 (ip), vehicle: Klucel (hydroxypropylcellulose) (HPC)): 100 % of control
T/C (dose: 200.0 mg/kg/injection, schedule: Q04DX003 (ip), vehicle: Klucel (hydroxypropylcellulose) (HPC)): 100 % of control

CCOC(=O)Cc1c[nH]c2ccc(N(CCCl)CCCl)cc12
T/C (dose: 0.11 mg/kg/injection, schedule: Q04DX003 (ip), vehicle: Klucel (hydroxypropylcellulose) (HPC)): 116 % of control
T/C (dose: 0.17 mg/kg/injection, schedule: Q04DX003 (ip), vehicle: Klucel (hydroxypropylcellulose) (HPC)): 120 % of control
T/C (dose: 0.26 mg/kg/injection, schedule: Q04DX003 (ip), vehicle: Klucel (hydroxypropylcellulose) (HPC)): 100 % of control
T/C (dose: 0.5 mg/kg/injection, schedule: Q01DX009 (ip), vehicle: Klucel (hydroxypropylcellulose) (HPC)): 154 % of control
T/C (dose: 0.8 mg/kg/injection, schedule: Q01DX009 (ip), vehicle: Klucel (hydroxypropylcellulose) (HPC)): 175 % of control
T/C (dose: 0.9 mg/kg/injection, schedule: Q04DX003 (ip), vehicle: Klucel (hydroxypropylcellulose) (HPC)): 154 % of control
T/C (dose: 1.3 mg/kg/injection, schedule: Q01DX009 (ip), vehicle: Klucel (hydroxypropylcellulose) (HPC)): 250 % of control
T/C (dose: 1.4 mg/kg/injection, schedule: Q04DX003 (ip), vehicle: Klucel (hydroxypropylcellulose) (HPC)): 163 % of control
T/C (dose: 2.0 mg/kg/injection, schedule: Q01DX009 (ip), vehicle: Klucel (hydroxypropylcellulose) (HPC)): 272 % of control
T/C (dose: 2.2 mg/kg/injection, schedule: Q04DX003 (ip), vehicle: Klucel (hydroxypropylcellulose) (HPC)): 204 % of control
T/C (dose: 3.0 mg/kg/injection, schedule: Q01DX009 (ip), vehicle: Klucel (hydroxypropylcellulose) (HPC)): 230 % of control and 272 % of control
T/C (dose: 3.3 mg/kg/injection, schedule: Q04DX003 (ip), vehicle: Klucel (hydroxypropylcellulose) (HPC)): 222 % of control
T/C (dose: 4.5 mg/kg/injection, schedule: Q01DX009 (ip), vehicle: Klucel (hydroxypropylcellulose) (HPC)): 154 % of control
T/C (dose: 5.0 mg/kg/injection, schedule: Q04DX003 (ip), vehicle: Klucel (hydroxypropylcellulose) (HPC)): 245 % of control and 272 % of control
T/C (dose: 6.0 mg/kg/injection, schedule: Q01DX009 (ip), vehicle: Klucel (hydroxypropylcellulose) (HPC)): 107 % of control
T/C (dose: 7.5 mg/kg/injection, schedule: Q04DX003 (ip), vehicle: Klucel (hydroxypropylcellulose) (HPC)): 240 % of control
T/C (dose: 8.0 mg/kg/injection, schedule: Q04DX003 (ip), vehicle: Klucel (hydroxypropylcellulose) (HPC)): 272 % of control
T/C (dose: 12.5 mg/kg/injection, schedule: Q04DX003 (ip), vehicle: Klucel (hydroxypropylcellulose) (HPC)): 272 % of control

Cc1ccc(C)c(Nc2cc(=O)[nH]c(=O)[nH]2)c1
T/C [1]: 98 % of control
T/C [2]: 103 % of control

Cc1cc(N(CCO)CCO)c2cc3ccc4cccc5ccc(c2n1)c3c45
T/C (dose: 25.0 mg/kg/injection, schedule: Q04DX003 (ip), vehicle: saline with Tween-80): 98 % of control
T/C (dose: 50.0 mg/kg/injection, schedule: Q04DX003 (ip), vehicle: saline with Tween-80): 110 % of control
T/C [3]: 93 % of control and 100 % of control

O=CN(O)CC(=O)O.[Cu]
T/C (dose: 1.16 mg/kg/injection, schedule: Q04DX003 (ip), vehicle: saline): 95 % of control
T/C (dose: 1.77 mg/kg/injection, schedule: Q04DX003 (ip), vehicle: saline): 95 % of control
T/C (dose: 2.65 mg/kg/injection, schedule: Q04DX003 (ip), vehicle: saline): 90 % of control
T/C (dose: 3.9 mg/kg/injection, schedule: Q04DX003 (ip), vehicle: saline): 90 % of control
T/C (dose: 6.0 mg/kg/injection, schedule: Q04DX003 (ip), vehicle: saline): 100 % of control
T/C (dose: 9.0 mg/kg/injection, schedule: Q04DX003 (ip), vehicle: saline): 113 % of control
T/C (dose: 10.0 mg/kg/injection, schedule: Q01DX001 (ip), vehicle: saline): 100 % of control
T/C (dose: 13.0 mg/kg/injection, schedule: Q04DX003 (ip), vehicle: saline): 104 % of control
T/C (dose: 20.0 mg/kg/injection, schedule: Q01DX001 (ip), vehicle: saline): 118 % of control

CC1=C2CC[C@H]3[C@@H]4CC[C@H](O)[C@@]4(C)CC[C@@H]3[C@@]2(C)CCC1=O
T/C [3]: 95 % of control
T/C [4]: 95 % of control
T/C (dose: 400.0 mg/kg/injection, schedule: Q04DX003 (ip), vehicle: saline with Tween-80): 100 % of control

COC(=O)C(C)CN1CC(C)OC(C)C1 (stereo unspecified)
T/C (dose: 100.0 mg/kg/injection, schedule: Q04DX003 (ip), vehicle: saline): 113 % of control
T/C [5]: 100 % of control
T/C (dose: 400.0 mg/kg/injection, schedule: Q04DX003 (ip), vehicle: saline): 100 % of control

O=C(O)CC(O)(CC(=O)O)C(=O)O.[Ga]
T/C (dose: 75.0 mg/kg/injection, schedule: Q01DX009 (ip), vehicle: saline): 114 % of control
T/C (dose: 112.5 mg/kg/injection, schedule: Q01DX009 (ip), vehicle: saline): 90 % of control
T/C (dose: 132.0 mg/kg/injection, schedule: Q04DX003 (ip), vehicle: saline): 115 % of control
T/C [5]: 110 % of control
T/C (dose: 300.0 mg/kg/injection, schedule: Q04DX003 (ip), vehicle: saline): 110 % of control

C=CC(=O)NC12CC3CC(CC(C3)C1)C2
T/C [3]: 95 % of control
T/C [4]: 95 % of control

CCCC1CCC(=C2C(=O)CCC2=O)O1 (stereo unspecified)
T/C (dose: 3.13 mg/kg/injection, schedule: Q01DX009 (ip), vehicle: saline): 119 % of control
T/C (dose: 6.25 mg/kg/injection, schedule: Q01DX009 (ip), vehicle: saline): 119 % of control
T/C (dose: 12.5 mg/kg/injection, schedule: Q01DX009 (ip), vehicle: saline): 119 % of control
T/C (dose: 25.0 mg/kg/injection, schedule: Q01DX009 (ip), vehicle: saline): 119 % of control
T/C (dose: 25.0 mg/kg/injection, schedule: Q04DX002 (ip), vehicle: saline with Tween-80): 113 % of control
T/C (dose: 25.0 mg/kg/injection, schedule: Q04DX002 (ip), vehicle: saline): 107 % of control
T/C (dose: 50.0 mg/kg/injection, schedule: Q04DX002 (ip), vehicle: saline with Tween-80): 103 % of control
T/C (dose: 50.0 mg/kg/injection, schedule: Q04DX002 (ip), vehicle: saline): 100 % of control
T/C (dose: 100.0 mg/kg/injection, schedule: Q04DX002 (ip), vehicle: saline with Tween-80): 120 % of control
T/C (dose: 200.0 mg/kg/injection, schedule: Q04DX002 (ip), vehicle: saline): 105 % of control

CN(C)C(=O)c1cccc(COc2ccc([N+](=O)[O-])cc2Cl)c1
T/C [1]: 109 % of control
T/C (dose: 132.0 mg/kg/injection, schedule: Q01DX009 (ip), vehicle: saline sonified): 91 % of control
T/C [2]: 109 % of control
T/C (dose: 200.0 mg/kg/injection, schedule: Q01DX009 (ip), vehicle: saline sonified): 87 % of control
T/C (dose: 300.0 mg/kg/injection, schedule: Q01DX009 (ip), vehicle: saline sonified): 87 % of control
T/C (dose: 400.0 mg/kg/injection, schedule: Q01DX001 (ip), vehicle: Klucel (hydroxypropylcellulose) (HPC)): 104 % of control

O=C(COc1ccc(Cl)cc1)C1CSc2ccc(Br)cc21 (stereo unspecified)
T/C (dose: 100.0 mg/kg/injection, schedule: Q04DX003 (ip), vehicle: saline sonified): 90 % of control
T/C (dose: 200.0 mg/kg/injection, schedule: Q04DX003 (ip), vehicle: saline sonified): 95 % of control
T/C (dose: 400.0 mg/kg/injection, schedule: Q04DX003 (ip), vehicle: saline sonified): 95 % of control
